In patent US20190008879A1 (priority 2017, published 2019):

Tests used:
PI3K/Akt pathway = conditions: cited from earlier work
[1] = tested on: mammary tumor cell line MCF-7; assay: In vitro antitumor activity on MCF-7, noted by the inventor; type: cell-based, human; conditions: MCF-7 strain
[2] = tested on: invasive ductal breast cancer; conditions: 6 g/d in addition to chemotherapy, six months, 14 patients; cited from earlier work
periampullary cancer = assay: Preventive consumption of phytin by the patient before the diagnosis; type: in vivo, human; conditions: 1.4 g/day phytin solubilized in citric acid, oral, for 5 years before diagnosis
Text: Before their admission to emergency department, the patient consumed, on a regular basis, with a view to prevention and for 5 years as an oral food supplement, 1.4 g/day of phytin solubilized in citric acid.

O=P(O)(O)O[C@@H]1[C@@H](OP(=O)(O)O)[C@H](OP(=O)(O)O)[C@H](O)[C@H](OP(=O)(O)O)[C@H]1OP(=O)(O)O [myo-inositol 1,3,4,5,6 pentakis phosphate]
antitumor activity compared with phytin (PI3K/Akt pathway): higher than that of phytin | anti-angiogenic action (PI3K/Akt pathway; concentration of 50 μM): anti-angiogenic action by inhibiting the PI3K/Akt pathway

O[C@H]1[C@H](O)[C@@H](O)[C@H](O)[C@@H](O)[C@H]1O [myo-inositol]
in vitro antitumor action [1]: no in vitro antitumor action

phytin
cytopenia (leucocyte and platelet quantitative deficiency) [2]: preserved from cytopenia | tumor progression [2]: no impact on tumor progression | antitumor activity in human in the absence of magnesium chloride (periampullary cancer): does not have antitumor activity in human
